These are literature values, as cited in article PMC5580352 (Journal of medicinal chemistry, 2017).

The conditions of this data set: 1 week of administration of 20 mg/kg.

For `CCCC[S+]([O-])c1sc2nc(-c3cccs3)cc(-c3ccccc3)c2c1N` (stereo not shown) [Compound 1, 2-(butylsulfinyl)-4-phenyl-6-(thiophen-2-yl)thieno[2,3-b]pyridin-3-amine], the adverse effects entry was “no adverse effects on weight, activity, blood counts or blood chemistry”.
